Like-named read-outs stand apart in the source and are kept apart here.
How the values were obtained:
human EGFR = target: T1, human EGFR (Homo sapiens, UniProt P00533); experiment: HTScan EGF Receptor Kinase assay; type: biochemical; conditions: FIG. 1
T1 construct: human EGFR (His672-Ala1210); purchased Cell Signaling Technologies; host or cells: baculovirus expression system
Procedure: The ability of compounds to inhibit receptor kinase (EGFR) activity was assayed using HTScan™ EGF Receptor Kinase Assay Kits (Cell Signaling Technologies, Danvers, Mass.). […] The protein was purified by one-step affinity chromatography using glutathione-agarose.
Immediately transfer enzyme from −80° C. to ice. Allowed enzyme to thaw on ice. […] Returned immediately to ice. […] Incubated reaction plate at room temperature for 30 minutes. […] Added 100 μl/well primary antibody. Incubated at room temperature for 60 minutes. […] Added 100 μl/well diluted antibody. Incubated at room temperature for 30 minutes. […] Incubated at room temperature for 5 minutes.

Breast_MCF7 = experiment: Cell proliferation assay (ATPlite); type: cell-based; conditions: 72 hours, 0.5% fetal bovine serum
Procedure: (§1) A representative number of compounds were assayed against several different cell lines using the cell proliferation assay:
(§2) Cell Proliferation Assay:
(§3) Cancer cell lines were plated at 5,000 to 10,000 per well in 96-well flatted bottomed plates with various concentration of compounds. The cells were incubated with compounds for 72 hours in the presence of 0.5% of fetal bovine serum. Growth inhibition was accessed by adenosine triphosphate (ATP) content assay using Perkin Elmer ATPlite kit. ATPlite is an ATP monitoring system based on firefly luciferase. Briefly, 25 μl of mammalian cell lysis solution was added to 50 μl of phenol red-free culture medium per well to lyse the cells and stabilize the ATP. 25 μl of substrate solution was then added to the well and subsequently the luminescence was measured.

Breast_MDAMB468 = experiment: Cell proliferation assay (ATPlite); type: cell-based; conditions: 72 hours, 0.5% fetal bovine serum
Procedure: as §1, §2, §3

Breast_SkBr3 = experiment: Cell proliferation assay (ATPlite); type: cell-based; conditions: 72 hours, 0.5% fetal bovine serum
Procedure: as §1, §2, §3

Colon_HCT116 = experiment: Cell proliferation assay (ATPlite); type: cell-based; conditions: 72 hours, 0.5% fetal bovine serum
Procedure: as §1, §2, §3

Epidermoid_A431 = experiment: Cell proliferation assay (ATPlite); type: cell-based; conditions: 72 hours, 0.5% fetal bovine serum
Procedure: as §1, §2, §3

Lung_H2122 = experiment: Cell proliferation assay (ATPlite); type: cell-based; conditions: 72 hours, 0.5% fetal bovine serum
Procedure: as §1, §2, §3

Lung_H292 = experiment: Cell proliferation assay (ATPlite); type: cell-based; conditions: 72 hours, 0.5% fetal bovine serum
Procedure: as §1, §2, §3

Lung_H358 = experiment: Cell proliferation assay (ATPlite); type: cell-based; conditions: 72 hours, 0.5% fetal bovine serum
Procedure: as §1, §2, §3

Lung_H460 = experiment: Cell proliferation assay (ATPlite); type: cell-based; conditions: 72 hours, 0.5% fetal bovine serum
Procedure: as §1, §2, §3

Pancreas_BxPC3 = experiment: Cell proliferation assay (ATPlite); type: cell-based; conditions: 72 hours, 0.5% fetal bovine serum
Procedure: as §1, §2, §3

Pancreas_CFPAC = experiment: Cell proliferation assay (ATPlite); type: cell-based; conditions: 72 hours, 0.5% fetal bovine serum
Procedure: as §1, §2, §3

Pancreas_Capan1 = experiment: Cell proliferation assay (ATPlite); type: cell-based; conditions: 72 hours, 0.5% fetal bovine serum
Procedure: as §1, §2, §3

Pancreas_HPAC = experiment: Cell proliferation assay (ATPlite); type: cell-based; conditions: 72 hours, 0.5% fetal bovine serum
Procedure: as §1, §2, §3

Pancreas_MiaPaCa2 = experiment: Cell proliferation assay (ATPlite); type: cell-based; conditions: 72 hours, 0.5% fetal bovine serum
Procedure: as §1, §2, §3

Pancreas_PANC1 = experiment: Cell proliferation assay (ATPlite); type: cell-based; conditions: 72 hours, 0.5% fetal bovine serum
Procedure: as §1, §2, §3

Prostate_22RV1 = experiment: Cell proliferation assay (ATPlite); type: cell-based; conditions: 72 hours, 0.5% fetal bovine serum
Procedure: as §1, §2, §3

Prostate_PC3 = experiment: Cell proliferation assay (ATPlite); type: cell-based; conditions: 72 hours, 0.5% fetal bovine serum
Procedure: as §1, §2, §3

HDAC = experiment: Ac-H4 and Ac-H3 accumulation in MDA-MB-468 breast cancer cell line; type: cell-based; conditions: FIG. 2
[1] = tested on: HCT-116 (colon) and SKBr3 (breast) cancer cells; experiment: Induction of apoptosis (Caspase 3&7 activity); type: cell-based; conditions: HCT-116 and SKBr3, 24 hours
A549 NSCLC = A549 NSCLC Xenograft model; type: in vivo, mice; conditions: compared with vehicle or control
Procedure: A representative protocol for the in vivo experiment is as followed:
1-10×10^6 human cancer cells were implanted subcutaneously to the athymic (nu/nu) mice. When the tumors reached about 100 mm^3 in volume, the mice were treated with the compound by tail vein infusion. Routinely 5 groups (8-12 mice per group) are needed for a typical efficacy study, including one negative control, one positive control, and three testing groups for 3 dose levels of the same compound. Usually a 7-7-5 (on-off-on) regimen was used for one typical study. The tumor size was measured with an electronic caliper and body weight measured with a scale twice weekly. The tumors were removed from euthanized mice at the end of the study. One half of each tumor was frozen in dry ice and stored at −80° C. for PK or Western blot analysis. The other half was fixed with formalin. The fixed tissues were processed, embedded in paraffin and sectioned for immunohistochemistry staining. Protocol for Radioisotope assay for HER2

[2] = male, CD-1, mouse, in vivo, ip, 7 days
Procedure: 7-day-multiple dosing MTD in mice • a. CD-1 mice, male, 24-26 gram • b. Dosing at 0, 50, 100, 200 mg/kg/d ip • c. 6 mice per group • d. Blood and organs will be collected 2 hr after last dosing on Day 7 for hematology
(§4) Stock solution is diluted with 30% CAPTISOL before use.

[3] = both, Sprague Dawley, rat, in vivo, iv, 8 days
Procedure: Single dosing MTD in rats • a. Sprague Dawley, male and female, 240-260 gram • b. Dosing at 0, 25, 50, 100, 200 mg/kg, iv infusion 5 min • c. 6 rats per group (3 male and 3 female)
as §4

T1 sequence (P00533 672-1210): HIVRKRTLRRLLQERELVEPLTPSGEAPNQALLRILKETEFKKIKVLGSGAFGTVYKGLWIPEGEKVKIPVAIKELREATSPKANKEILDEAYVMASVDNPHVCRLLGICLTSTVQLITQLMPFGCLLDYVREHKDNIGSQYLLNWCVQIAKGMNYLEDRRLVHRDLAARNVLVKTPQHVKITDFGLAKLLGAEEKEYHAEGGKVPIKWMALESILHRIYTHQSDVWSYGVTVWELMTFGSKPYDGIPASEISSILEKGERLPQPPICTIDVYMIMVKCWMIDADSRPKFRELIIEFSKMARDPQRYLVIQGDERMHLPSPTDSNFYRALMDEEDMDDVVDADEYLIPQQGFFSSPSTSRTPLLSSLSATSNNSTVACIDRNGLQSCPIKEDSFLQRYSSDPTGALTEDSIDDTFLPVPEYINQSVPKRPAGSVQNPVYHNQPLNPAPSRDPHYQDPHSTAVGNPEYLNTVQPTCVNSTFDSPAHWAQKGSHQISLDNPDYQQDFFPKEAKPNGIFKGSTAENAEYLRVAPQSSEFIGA

## C#Cc1cccc(Nc2ncnc3cc(OC)c(OCCCCCCC(=O)NO)cc23)c1 [Compound 12, 7-(4-(3-ethynylphenylamino)-7-methoxyquinazolin-6-yloxy)-N-hydroxyheptanamide]
Human EGFR
  activity in EFGR enzyme assay compared with erlotinib and SAHA: more active than erlotinib and SAHA
Breast_MCF7
  IC50: < 100 nM
Breast_MDAMB468
  IC50: < 100 nM
Breast_SkBr3
  IC50: 100 to 1000 nM
Colon_HCT116
  IC50: 100 to 1000 nM
Epidermoid_A431
  IC50: 100 to 1000 nM
Lung_H2122
  IC50: 100 to 1000 nM
Lung_H292
  IC50: < 100 nM
Lung_H358
  IC50: 100 to 1000 nM
Lung_H460
  IC50: 100 to 1000 nM
Pancreas_BxPC3
  IC50: < 100 nM
Pancreas_CFPAC
  IC50: 100 to 1000 nM
Pancreas_Capan1
  IC50: 100 to 1000 nM
Pancreas_HPAC
  IC50: 1000 to 10000 nM
Pancreas_MiaPaCa2
  IC50: 100 to 1000 nM
Pancreas_PANC1
  IC50: 100 to 1000 nM
Prostate_22RV1
  IC50: 100 to 1000 nM
Prostate_PC3
  IC50: 100 to 1000 nM
HDAC
  inhibition of histone acetylation compared with SAHA: improvement in inhibition
[1]
  cell apoptosis as measured by increased Caspase 3&7 activity: 4-11 times
A549 NSCLC
  effect on tumor size / tumor growth: attenuated tumor growth
[2]
  dose that did not result in a significant change in body weight: up to 100 mg/kg
[3]
  dose that did not result in a significant change in body weight: up to 200 mg/kg

Reference: US8119616B2, “Formulation of quinazoline based EGFR inhibitors containing a zinc binding moiety” (Curis, Inc., priority 2007, dated 2012)
